Measurements reported in ChEMBL document CHEMBL2074207, “Functional characterization of human breast cancer resistance protein (BCRP, ABCG2) expressed in the oocytes of Xenopus laevis” (Mol Pharmacol, 2003).

molecular target: T1, Broad substrate specificity ATP-binding cassette transporter ABCG2 (Homo sapiens, UniProt Q9UNQ0); test: TP_TRANSPORTER: uptake in BCRP-expressing oocyte cells; type: functional, cell-based; settings: xenopus laevis
T1 sequence (Q9UNQ0 whole entry): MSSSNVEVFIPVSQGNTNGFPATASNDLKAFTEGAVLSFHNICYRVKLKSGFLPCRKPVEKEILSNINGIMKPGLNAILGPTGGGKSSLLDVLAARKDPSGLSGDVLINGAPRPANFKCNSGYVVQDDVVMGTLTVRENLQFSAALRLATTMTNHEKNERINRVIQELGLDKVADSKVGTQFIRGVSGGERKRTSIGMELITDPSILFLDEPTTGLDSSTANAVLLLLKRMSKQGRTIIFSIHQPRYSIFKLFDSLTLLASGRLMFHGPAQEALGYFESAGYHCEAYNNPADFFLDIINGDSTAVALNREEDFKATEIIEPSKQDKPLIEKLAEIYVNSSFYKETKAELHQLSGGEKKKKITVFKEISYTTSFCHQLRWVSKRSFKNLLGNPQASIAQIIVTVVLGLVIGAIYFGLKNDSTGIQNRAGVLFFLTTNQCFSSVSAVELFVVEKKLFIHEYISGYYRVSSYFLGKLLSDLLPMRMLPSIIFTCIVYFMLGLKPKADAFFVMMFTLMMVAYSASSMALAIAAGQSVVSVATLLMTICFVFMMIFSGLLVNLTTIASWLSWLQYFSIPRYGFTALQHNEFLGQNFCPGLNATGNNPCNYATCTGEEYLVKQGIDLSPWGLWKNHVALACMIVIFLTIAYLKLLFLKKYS

Activity | Compound
substrate [] | COc1cccc2c1C(=O)c1c(O)c3c(c(O)c1C2=O)C[C@@](O)(C(C)=O)C[C@@H]3O[C@H]1C[C@H](N)[C@H](O)[C@H](C)O1 [DAUNORUBICIN]
substrate [] | CN1CC[C@H](c2c(O)cc(O)c3c(=O)cc(-c4ccccc4Cl)oc23)[C@H](O)C1 [ALVOCIDIB]
substrate [] | COC(=O)c1ccccc1-c1c2ccc(=N)cc-2oc2cc(N)ccc12.Cl [RHODAMINE123]

Compound | Activity
O=C1c2c(O)ccc(O)c2C(=O)c2c(NCCNCCO)ccc(NCCNCCO)c21 [MITOXANTRONE] | substrate []
